Measurements taken from patent publication US20260027116A1, “Methods of Treating Chronic Graft-Versus-Host Disease Following Allogeneic Hematopoietic Stem Cell Transplantation” (Kadmon Corporation, LLC, priority 2022, published 2026).

Test system: patients with cGVHD
Details: Cohort 3 400 mg QD

CC(C)NC(=O)COc1cccc(-c2nc(Nc3ccc4[nH]ncc4c3)c3ccccc3n2)c1 [Belumosudil, 2-{3-[4-(1H-indazol-5-ylamino)-2-quinazolinyl]phenoxy}-N-(propan-2-yl) acetamide]
12: Nausea: # Events
2: Gastrooesophageal reflux disease: # Events | Haematuria: # Events | Hyponatraemia: # Events | Influenza: # Events | Muscular weakness: # Events | Neuropathy peripheral: # Events | Photophobia: # Events
5: Hyperuricaemia: # Events | Pain in extremity: # Events
1: Generalised oedema: # Events | Hordeolum: # Events | Hyperhidrosis: # Events | Hyperthyroidism: # Events | Hypoaesthesia: # Events | Hypocalcaemia: # Events | Hypomagnesaemia: # Events | Hypophosphataemia: # Events | Joint range of motion decreased: # Events | Leukocytosis: # Events | Limb injury: # Events | Muscle spasticity: # Events | Musculoskeletal chest pain: # Events | Nasal congestion: # Events | Neutrophil count decreased: # Events | Non-cardiac chest pain: # Events | Oropharyngeal pain: # Events | Pain: # Events | Palpitations: # Events | Paraesthesia: # Events | Pleural effusion: # Events
6/21 (28.57%): Headache: Affected/At Risk (%) | Muscle spasms: Affected/At Risk (%) | Oedema peripheral: Affected/At Risk (%)
14 (67): Grade ≥3 AE, No. (%)
1/21 (4.76%): Generalised oedema: Affected/At Risk (%) | Glucose urine present: Affected/At Risk (%) | Haematuria: Affected/At Risk (%) | Hordeolum: Affected/At Risk (%) | Hyperhidrosis: Affected/At Risk (%) | Hyperthyroidism: Affected/At Risk (%) | Hypoaesthesia: Affected/At Risk (%) | Hypocalcaemia: Affected/At Risk (%) | Hypomagnesaemia: Affected/At Risk (%) | Hypophosphataemia: Affected/At Risk (%) | Joint range of motion decreased: Affected/At Risk (%) | Leukocytosis: Affected/At Risk (%) | Limb injury: Affected/At Risk (%) | Muscle spasticity: Affected/At Risk (%) | Musculoskeletal chest pain: Affected/At Risk (%) | Nasal congestion: Affected/At Risk (%) | Neuropathy peripheral: Affected/At Risk (%) | Neutrophil count decreased: Affected/At Risk (%) | Non-cardiac chest pain: Affected/At Risk (%) | Oropharyngeal pain: Affected/At Risk (%) | Pain: Affected/At Risk (%) | Palpitations: Affected/At Risk (%) | Paraesthesia: Affected/At Risk (%)
2/21 (9.52%): Gastrooesophageal reflux disease: Affected/At Risk (%) | Hyponatraemia: Affected/At Risk (%) | Influenza: Affected/At Risk (%) | Muscular weakness: Affected/At Risk (%) | Photophobia: Affected/At Risk (%)
8: Headache: # Events | Hyperglycemia: # Events
4: Hyperkalaemia: # Events | Hypothyroidism: # Events
2 (10): Grade ≥3 Hyperglycemia, No. (%) | Grade ≥3 Hypoxia, No. (%) | Grade ≥3 Lung infection or pneumonia, No. (%)
6: Hypertension: # Events | Muscle spasms: # Events | Oedema peripheral: # Events
0: Fungal infection: # Events | Gamma-glutamyltransferase increased: # Events | Gastric ulcer: # Events | Genital infection fungal: # Events | Glaucoma: # Events | Grade ≥3 ALT/AST increased, No. (%) | Grade ≥3 Anemia, No. (%) | Graft versus host disease in gastrointestinal tract: # Events | Gynaecomastia: # Events | Hair growth abnormal: # Events | Hodgkin's disease recurrent: # Events | Hot flush: # Events | Hypertriglyceridaemia: # Events | Hypogonadism: # Events | Hypokalaemia: # Events | Hypothermia: # Events | Impaired healing: # Events | Influenza like illness: # Events | Irritability: # Events | Lacrimation increased: # Events | Leukaemia recurrent: # Events | Ligament sprain: # Events | Macular degeneration: # Events | Migraine: # Events | Nail disorder: # Events | Neck pain: # Events | Nephrotic syndrome: # Events | Nocturia: # Events | Obesity: # Events | Oedema: # Events | Oesophageal ulcer: # Events | Oral candidiasis: # Events | Orthopnoea: # Events | Osteonecrosis: # Events | Osteopenia: # Events | Osteoporosis: # Events | Overdose: # Events | Pericardial effusion: # Events | Peripheral coldness: # Events | Peripheral sensory neuropathy: # Events | Phlebitis: # Events | Platelet count decreased: # Events
3: Glucose urine present: # Events | Hypoxia: # Events | Insomnia: # Events | Myalgia: # Events
9/21 (42.86%): Nausea: Affected/At Risk (%)
4/21 (19.05%): Hypertension: Affected/At Risk (%) | Pain in extremity: Affected/At Risk (%)
0/21 (0%): Fungal infection: Affected/At Risk (%) | Gamma-glutamyltransferase increased: Affected/At Risk (%) | Gastric ulcer: Affected/At Risk (%) | Genital infection fungal: Affected/At Risk (%) | Graft versus host disease in gastrointestinal tract: Affected/At Risk (%) | Gynaecomastia: Affected/At Risk (%) | Hair growth abnormal: Affected/At Risk (%) | Hodgkin's disease recurrent: Affected/At Risk (%) | Hot flush: Affected/At Risk (%) | Hypertriglyceridaemia: Affected/At Risk (%) | Hypogonadism: Affected/At Risk (%) | Hypokalaemia: Affected/At Risk (%) | Hypothermia: Affected/At Risk (%) | Impaired healing: Affected/At Risk (%) | Influenza like illness: Affected/At Risk (%) | Irritability: Affected/At Risk (%) | Lacrimation increased: Affected/At Risk (%) | Leukaemia recurrent: Affected/At Risk (%) | Ligament sprain: Affected/At Risk (%) | Macular degeneration: Affected/At Risk (%) | Migraine: Affected/At Risk (%) | Nail disorder: Affected/At Risk (%) | Neck pain: Affected/At Risk (%) | Nephrotic syndrome: Affected/At Risk (%) | Nocturia: Affected/At Risk (%) | Obesity: Affected/At Risk (%) | Oedema: Affected/At Risk (%) | Oesophageal ulcer: Affected/At Risk (%) | Oral candidiasis: Affected/At Risk (%) | Orthopnoea: Affected/At Risk (%) | Osteonecrosis: Affected/At Risk (%) | Osteopenia: Affected/At Risk (%) | Osteoporosis: Affected/At Risk (%) | Overdose: Affected/At Risk (%) | Pericardial effusion: Affected/At Risk (%) | Peripheral coldness: Affected/At Risk (%) | Peripheral sensory neuropathy: Affected/At Risk (%) | Phlebitis: Affected/At Risk (%) | Platelet count decreased: Affected/At Risk (%)
3/21 (14.29%): Hyperglycemia: Affected/At Risk (%) | Hyperkalaemia: Affected/At Risk (%) | Hyperuricaemia: Affected/At Risk (%) | Hypothyroidism: Affected/At Risk (%) | Hypoxia: Affected/At Risk (%) | Insomnia: Affected/At Risk (%) | Myalgia: Affected/At Risk (%)
4 (19): Grade ≥3 Dyspnea, No. (%)
